One may read the IC50 as the concentration that gives 50% inhibition. Lower therefore signals higher potency. What is called EC50 is the concentration at which the effect is half-maximal. Read a high EC50 as a less potent agent.

The structures appear in SMILES notation.

Assay [1] concerns the target T1, hMAO-B (Homo sapiens, UniProt P27338).
T1 sequence (P27338 1-520): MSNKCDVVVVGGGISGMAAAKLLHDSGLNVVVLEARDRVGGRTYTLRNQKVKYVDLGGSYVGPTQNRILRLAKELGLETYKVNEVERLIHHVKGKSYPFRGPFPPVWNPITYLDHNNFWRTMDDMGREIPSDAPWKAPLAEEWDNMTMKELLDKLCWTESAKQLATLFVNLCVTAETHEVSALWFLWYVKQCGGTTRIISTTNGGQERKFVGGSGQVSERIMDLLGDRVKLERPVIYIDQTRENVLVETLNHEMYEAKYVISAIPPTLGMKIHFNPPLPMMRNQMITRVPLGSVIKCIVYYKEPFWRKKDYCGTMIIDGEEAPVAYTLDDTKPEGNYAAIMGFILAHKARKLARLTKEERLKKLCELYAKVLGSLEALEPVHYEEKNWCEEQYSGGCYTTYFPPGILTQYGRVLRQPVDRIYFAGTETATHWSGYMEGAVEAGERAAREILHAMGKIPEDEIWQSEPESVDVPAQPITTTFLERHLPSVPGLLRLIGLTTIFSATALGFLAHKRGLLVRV
Briefly: hMAO-B inhibition, IC50 determination (kynuramine fluorescence). The assay is classed as biochemical. The protocol: The procedure for the measurement of IC50 values for the inhibition of MAO has been reported. The enzyme reactions were prepared to a volume of […] in potassium phosphate buffer at pH 7.4 (100 mM, made isotonic with KCl) and contained kynuramine (50 μM) and the test inhibitors (0.003–100 µM). Stock solutions of the test inhibitors were prepared in DMSO and added to the reactions to yield 4% DMSO. The enzyme reactions were initiated with the addition of recombinant hMAO-A (0.0075 mg protein/mL) or hMAO-B (0.015 mg protein/mL) and incubated for 20 min at 37 °C. At endpoint, the reactions were terminated with 80 µL sodium hydroxide (2N) and the fluorescence of 4-hydroxyquinoline, the oxidation product of kynuramine, was measured (λex = 310; λem = 400 nm)[33]. 4-Hydroxyquinoline was quantified with a calibration curve (0.047–1.56 μM) and the rate of 4-hydroxyquinoline formation was fitted to the one site competition model of the Prism 5 software package (GraphPad). From the resulting sigmoidal plots, the IC50 values were estimated. All enzyme reactions were carried out in triplicate and IC50 values are given as the mean ± standard deviation (SD).

Assay [2] can be described thus: Phosphomolybdenum assay (PhosphoMo), total antioxidant activity. The note with it: concentration at which absorbance was 0.5.
Assay [3] is described as follows: ABTS radical cation scavenging activity.
The nature of assay [4]: Metal chelating activity on ferrous ions. To be noted: ferrozine.

On to `CC(=NNc1nc(-c2cccc([N+](=O)[O-])c2)cs1)c1cccs1` [Compound 4, 1-(4-(3-Nitrophenyl)thiazol-2-yl)-2-(1-(thiophen-2-yl)ethylidene)hydrazine], for which the IC50 in assay [1] is 0.0018 µM; in assay [3], 1040 ± 10 µM; in assay [4], above 5000 µM. Further, the “Selectivity index (SI) for the MAO-B isoform” value in assay [1] (ratio (IC50 hMAO-A)/(IC50 hMAO-B)) is 922. Moreover, a half-maximal effect in assay [2] (EC50) was put at 1680 ± 90 µM.

For the origin of these results see PMC6366404, “4-(3-Nitrophenyl)thiazol-2-ylhydrazone derivatives as antioxidants and selective hMAO-B inhibitors: synthesis, biological activity and computational analysis” (Journal of Enzyme Inhibition and Medicinal Chemistry, 2019).
